According to patent publication US11766447B2, “3′3′-cyclic dinucleotide analogue comprising a cyclopentanyl modified nucleotide as sting modulator” (INSTITUTE OF ORGANIC CHEMISTRY AND BIOCHEMISTRY ASCR, V.V.I., priority 2019, dated 2023):

Experiments:
WT STING [1] = molecular target: T1, WT STING (Homo sapiens, UniProt Q86WV6, H232R); assay: Digitonin assay using 293T wtSTING-FL reporter cells; format: cell-based; design: host or cells: 293T (ATCC CRL-3216), stably transfected, with 4xISRE firefly luciferase reporter; details: 293T wtSTING-FL cells, ISRE firefly luciferase; compounds in Digitonin buffer 30 minutes, then 5 hours; 8-point curve
From the text: Two complementary oligonucleotides of the sequence […] […] […] […] […] The oligonucleotides were mixed in equal molar amounts, hybridized, and cleaved by restriction endonucleases HindIII (cat. #. R0104S, NEB, Ipswich, USA) and BglII (cat. #R0144S, NEB, Ipswich, USA). Ultimately, they were ligated into plasmid pGL4.27 (cat. #E6651, Promega, Madison, USA) linearized with the same enzymes. As result the sequence with four ISRE sites was placed upstream of the minimum promoter of firefly luciferase reporter gene.
After 5 minutes incubation at room temperature (RT), 250 μL of the mixture was added dropwise to the cells in one well. Cells were incubated 36 hours at 37° C. with 5% CO2, and then detached with 0.05% Trypsin and 0.22 g/L EDTA (both cat. #L0941, Biowest, Riverside, USA).
Transfected cells were seeded onto poly-D-lysine coated six well plates at density 50,000 cells per 1 cm^2 in DMEM medium with high glucose containing 10% heat inactivated FBS, 30 μg/mL blasticidin (cat. #ant-b1-05, InvivoGen, San Diego, USA), 0.06 mg/ml Penicillin G and 0.1 mg/ml Streptomycin Sulfate (both cat. #. L0018, Biowest, Riverside, USA). The medium was replenished every 3-4 days until visible colonies of cells resistant to blasticidin were formed.
Blasticidin resistant cells stably expressing WT STING were further transfected with […] plasmid following the same procedure as described above. […] Homogeneous culture of stably double transfected cells was prepared by limiting dilution of cells in 96 well plates and wells with cells were selected that originated from a single cell.
The medium was removed next day and three fold serial dilutions of compounds in Digitonin buffer containing 50 mmol·l^−1 HEPES (cat. #H3375, Sigma Aldrich, Czech Republic) pH 7.0, 100 mmol·l^−1 KCl, 3 mmol·l^−1 MgCl2, 0.1 mmol·l^−1 DTT (cat. #D0632, Sigma Aldrich, Czech Republic), 85 mmol·l^−1 Sucrose (cat. #S7903, Sigma Aldrich, Czech Republic), 0.2% BSA (cat. #A2153, Sigma Aldrich, Czech Republic), 1 mmol·l^−1 ATP (cat. #A1852, Sigma Aldrich, Czech Republic), 0.1 mmol·l^−1 GTP (cat. #G8877, Sigma Aldrich, Czech Republic), and 10 μg/mL Digitonin A (cat. #D141, Sigma Aldrich, Czech Republic) were added to the cells. The buffer was removed after 30 minutes incubation at 37° C. with 5% CO2, the cells were washed once with 100 μl of cultivation medium, and 100 μl of medium was added to each well. The plates with cells were incubated for 5 hours at 37° C. with 5% CO2, 50 μl of the medium was removed and 30 μl of ONE-Glo™ Luciferase Assay System reagent (cat. #E6120, Promega, Madison, USA) was added to each well. Luminescence was read on Synergy H1 (Biotek, Winooski, USA). GraphPad Prism (La Jolla, USA) was used to calculate the 50% effective concentration ([…] from an 8-point dose-response curve.
Target sequence in this assay (Q86WV6 whole entry H232R): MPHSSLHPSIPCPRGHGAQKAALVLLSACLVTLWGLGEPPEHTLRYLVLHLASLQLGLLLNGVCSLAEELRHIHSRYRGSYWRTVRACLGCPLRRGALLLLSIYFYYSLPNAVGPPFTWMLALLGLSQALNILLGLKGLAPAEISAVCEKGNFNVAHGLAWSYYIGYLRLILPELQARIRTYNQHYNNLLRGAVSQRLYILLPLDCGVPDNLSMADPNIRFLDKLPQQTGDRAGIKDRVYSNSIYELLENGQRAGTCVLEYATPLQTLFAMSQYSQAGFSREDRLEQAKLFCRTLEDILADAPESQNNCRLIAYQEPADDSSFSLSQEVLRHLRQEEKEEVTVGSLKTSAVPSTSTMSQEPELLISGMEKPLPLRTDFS

AQ STING (G230A-R293Q) = molecular target: T2, AQ STING (G230A-R293Q) (Homo sapiens, UniProt Q86WV6, G230A/H232R/R293Q); assay: Differential scanning fluorimetry (DSF) with AQ STING; format: binding; details: thermal shift vs apoprotein; 150 μM CDN; truncated human AQ STING 0.1 mg/ml
T2 construct: 8xHis (N, cleaved yes); SUMO (N, cleaved yes); made in house; host or cells: E. coli Rosetta-gami B (DE3)
T2 sequence (Q86WV6 140-343 G230A/H232R/R293Q): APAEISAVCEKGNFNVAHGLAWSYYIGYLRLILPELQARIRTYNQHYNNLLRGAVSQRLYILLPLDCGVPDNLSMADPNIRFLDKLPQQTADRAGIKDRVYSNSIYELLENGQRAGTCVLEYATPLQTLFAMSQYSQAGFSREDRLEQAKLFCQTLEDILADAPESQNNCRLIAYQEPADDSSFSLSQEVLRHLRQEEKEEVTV
Protocol: (§1) Purified PCR products were cleaved with restriction enzymes BamHI (cat. #R0136S, NEB, Ipswich, USA) and NotI (cat. #R0189S, NEB, Ipswich, USA) and cloned into the pSUMO vector linearized with the identical enzymes.
(§2) DNase I (cat. #D5025, Sigma Aldrich, Czech Republic) and RNase A (cat. #R6513, Sigma Aldrich, Czech Republic) were added (final concentration 50 μg/ml) together with MgCl2 (final concentration 5 mmol·l^−1) to the homogenate and bacteria were lysed using French Press G-M™ High-Pressure Cell Press Homogenizer (1500 psi, 3 cycles). […] The resin was poured into a chromatography column, washed with 50 ml buffer A (50 mmol·l^−1 TrisCl (pH 8.0), 800 mmol·l^−1 NaCl, 3 mmol·l^−1 β-mercaptoethanol; 10% glycerol; 20 mmol·l^−1 imidazol) and 8-His-SUMO tagged STING proteins were eluted with 15 ml buffer A containing 300 mmol·l^−1 imidazole. […] Proteins were concentrated with Amicon® Ultra-15 10 K device (cat. #UFC901008, Merck Millipore, Billerica, USA) and flash frozen in liquid N2.
(§3) 20 μL solutions of the reaction mixtures were pipetted in triplicates into 96 well optical reaction plates and thermal denaturation of samples were performed on real time PCR cycler (LightCycler® 480 Instrument II—Roche, Basel, Switzerland). The first derivative of the thermal denaturation curves was performed to calculate denaturing temperatures of STING-CDN complexes and STING apoproteins. The thermal shift for each CDN was calculated by subtracting the average denaturing temperature of STING apoprotein from the average denaturing temperature of STING CDN complex.

WT STING [2] = molecular target: T1, WT STING; assay: Differential scanning fluorimetry (DSF) with WT STING; format: binding; design: 8xHis (N, cleaved yes); SUMO (N, cleaved yes); made in house; host or cells: E. coli Rosetta-gami B (DE3); details: thermal shift vs apoprotein; 150 μM CDN; truncated human WT STING 0.1 mg/ml
Protocol: as §1, §2, §3
Target sequence in this assay (Q86WV6 140-343 H232R): as the sequence (Q86WV6 140-343 G230A/H232R/R293Q) above, with A91G, Q154R counted along it

| SMILES | EC50 (WT STING [1]) [nM] | DSF ΔTm (° C.) AQ STING (AQ STING (G230A-R293Q)) [°C] | DSF ΔTm (° C.) WT STING (WT STING [2]) [°C] | ΔTm at 150 µM (AQ STING (G230A-R293Q)) [°C] | ΔTm at 150 µM (WT STING [2]) [°C] |
| --- | --- | --- | --- | --- | --- |
| Nc1nc2c(ncn2[C@@H]2C[C@@H]3COP(=O)(O)OC4C(F)[C@H](n5cnc6c(N)ncnc65)O[C@@H]4COP(=O)(O)OC3C2O)c(=O)[nH]1 (single isomer, unassigned) [Compound 105] | 1600 | 7.0 | 0.8 | – | – |
| Nc1ncnc2c1ncn2[C@@H]1C[C@@H]2COP(=O)(O)O[C@H]3[C@@H](F)[C@H](n4cnc5c(N)ncnc54)O[C@@H]3COP(=O)(O)O[C@H]2[C@@H]1F [Compound 127, (1R,6R,8R,9R,10R,15R,17R,18R)-8,17-bis(6-amino-9H-purin-9-yl)-9,18-difluoro-3,12-dihydroxy-2,4,7,11,13-pentaoxa-3λ^5,12λ^5-diphosphatricyclo[13.3.0.0^6,10]octadecane-3,12-dione] | 100 | – | – | 7.9 | 2.6 |
| Nc1nc2c(ncn2[C@H]2CC3OP(=O)(S)OC[C@H]4O[C@@H](n5cnc6c(N)ncnc65)C(F)C4OP(=O)(S)OC[C@H]3C2)c(=O)[nH]1 (single isomer, unassigned) [Compound 129b] | 200 | 13.2 | 7.0 | – | – |
| Nc1ncnc2c1ncn2[C@@H]1C[C@@H]2COP(=O)(O)OC3C(F)[C@H](n4cnc5c(N)ncnc54)O[C@@H]3COP(=O)(S)OC2C1F (single isomer, unassigned) [Compound 141b] | 50 | 11.6 | 5.3 | – | – |
| Nc1ncnc2c1ncn2[C@@H]1C[C@@H]2COP(=O)(O)OC3C(F)[C@H](n4cnc5c(N)ncnc54)O[C@@H]3COP(=O)(S)OC2C1F (single isomer, unassigned) [Compound 141a] | 3000 | 3.9 | 0.3 | – | – |
| Nc1nc2c(ncn2[C@H]2CC3OP(=O)(O)OC[C@H]4O[C@@H](n5cnc6c(N)ncnc65)CC4OP(=O)(O)OC[C@H]3C2)c(=O)[nH]1 (stereo partly drawn) [Compound 117, (6R,8R,15R,17R)-17-(2-amino-6-oxo-6,9-dihydro-1H-purin-9-yl)-8-(6-amino-9H-purin-9-yl)-3,12-dihydroxy-2,4,7,11,13-pentaoxa-3λ^5,12λ^5-diphosphatricyclo[13.3.0.0^6,10]octadecane-3,12-dione] | 200 | – | – | 7.1 | 2.2 |
| Nc1ncnc2c1ncn2[C@H]1CC2OP(=O)(O)OC[C@H]3O[C@@H](n4cnc5c(N)ncnc54)CC3OP(=O)(O)OC[C@H]2C1 (stereo partly drawn) [Compound 126, (2R,3aS,7aR,9R,10aS,14aR)-2,9-bis(6-amino-9H-purin-9-yl)-5,12-dihydroxydecahydro-2H-cyclopenta[d]furo[3,2-j][1,3,7,9]tetraoxa[2,8]diphosphacyclododecine 5,12-dioxide] | 1800 | – | – | 7.5 | 1.1 |
| Nc1ncnc2c1ncn2[C@@H]1O[C@@H]2COP(=O)(O)OC3C(O)[C@H](n4cnc5c(=O)[nH]cnc54)C[C@@H]3COP(=O)(O)OC2C1O (stereo partly drawn) [Compound 104, 9-((2R,3R,3a5,7aR,9R,10S,10aR,14aR)-2-(6-amino-9H-purin-9-yl)-3,5,10,12-tetrahydroxy-5,12-dioxidodecahydro-2H-cyclopenta[d]furo[3,2-j][1,3,7,9]tetraoxa[2,8]diphosphacyclododecin-9-yl)-1,9-dihydro-6H-purin-6-one] | 200 | – | – | 11.4 | 3.4 |
| Nc1ncnc2c1ncn2[C@@H]1C[C@@H]2COP(=O)(S)O[C@@H]3[C@@H](COP(=O)(S)O[C@H]2[C@H]1F)C[C@@H](n1cnc2c(N)ncnc21)[C@@H]3F (single isomer, unassigned) [Compound 128a] | 10 | – | – | 14.8 | 9.6 |
| Nc1nc2c(ncn2[C@@H]2O[C@@H]3COP(=O)(O)OC4C(O)[C@H](n5cnc6c(N)ncnc65)C[C@@H]4COP(=O)(O)OC3C2O)c(=O)[nH]1 (stereo partly drawn) [Compound 108, 2-amino-9-((2R,3R,3aS,7aR,9R,10S,10aR,14aR)-9-(6-amino-9H-purin-9-yl)-3,5,10,12-tetrahydroxy-5,12-dioxidodecahydro-2H-cyclopenta[d]furo[3,2-j][1,3,7,9]tetraox[2,8]diphosphacyclododecin-2-yl)-1,9-dihydro-6H-purin-6-one] | 40 | – | – | 14.3 | 5.2 |
| Nc1nc2c(ncn2[C@H]2CC3OP(=O)(O)OC[C@H]4C[C@@H](n5cnc6c(N)ncnc65)C(O)C4OP(=O)(O)OC[C@H]3O2)c(=O)[nH]1 (stereo partly drawn) [Compound 110, 2-amino-9-((2R,3a5,7aR,9R,10S,10aR,14aR)-9-(6-amino-9H-purin-9-yl)-5,10,12-trihydroxy-5,12-dioxidodecahydro-2H-cyclopenta[d]furo[3,2-j][1,3,7,9]tetraoxa[2,8]diphosphacyclododecin-2-yl)-1,9-dihydro-6H-purin-6-one] | 50 | – | – | 15.7 | 5.8 |
| Nc1ncnc2c1ncn2[C@@H]1O[C@@H]2COP(=O)(O)O[C@H]3[C@@H](O)[C@H](n4cnc5c(N)ncnc54)O[C@@H]3COP(=O)(O)O[C@H]2[C@H]1O [3′3′c-di-AMP, reference compound] | 300 | 9.3 | 2.6 | – | – |
| Nc1nc2c(ncn2[C@@H]2C[C@@H]3COP(=O)(O)OC4C(F)[C@H](n5cnc6c(N)ncnc65)O[C@@H]4COP(=O)(O)OC3C2O)c(=O)[nH]1 (single isomer, unassigned) [Compound 103] | 10 | 16.6 | 7.6 | – | – |
